Measured values as given in patent US9486491B2, “Collagen peptide composition production method, DPP-4 inhibitor, and antihyperglycemic agent” (Nippi, Incorporated, priority 2012, dated 2016).
In brackets after ≈: the same amount, converted by molar mass. Non-standard residues stand in square brackets, D forms with d. Residues, ends and D or L forms follow the SMILES beside them. No end group written: not given here. Hyp = O=C(O)[C@@H]1C[C@@H](O)CN1

Molecular target: T1, DPP-4 (derived from porcine kidney) (Sus scrofa, UniProt P22411)
T1 construct: purchased Sigma; host or cells: porcine kidney (tissue-derived enzyme)
T1 sequence (P22411 whole entry): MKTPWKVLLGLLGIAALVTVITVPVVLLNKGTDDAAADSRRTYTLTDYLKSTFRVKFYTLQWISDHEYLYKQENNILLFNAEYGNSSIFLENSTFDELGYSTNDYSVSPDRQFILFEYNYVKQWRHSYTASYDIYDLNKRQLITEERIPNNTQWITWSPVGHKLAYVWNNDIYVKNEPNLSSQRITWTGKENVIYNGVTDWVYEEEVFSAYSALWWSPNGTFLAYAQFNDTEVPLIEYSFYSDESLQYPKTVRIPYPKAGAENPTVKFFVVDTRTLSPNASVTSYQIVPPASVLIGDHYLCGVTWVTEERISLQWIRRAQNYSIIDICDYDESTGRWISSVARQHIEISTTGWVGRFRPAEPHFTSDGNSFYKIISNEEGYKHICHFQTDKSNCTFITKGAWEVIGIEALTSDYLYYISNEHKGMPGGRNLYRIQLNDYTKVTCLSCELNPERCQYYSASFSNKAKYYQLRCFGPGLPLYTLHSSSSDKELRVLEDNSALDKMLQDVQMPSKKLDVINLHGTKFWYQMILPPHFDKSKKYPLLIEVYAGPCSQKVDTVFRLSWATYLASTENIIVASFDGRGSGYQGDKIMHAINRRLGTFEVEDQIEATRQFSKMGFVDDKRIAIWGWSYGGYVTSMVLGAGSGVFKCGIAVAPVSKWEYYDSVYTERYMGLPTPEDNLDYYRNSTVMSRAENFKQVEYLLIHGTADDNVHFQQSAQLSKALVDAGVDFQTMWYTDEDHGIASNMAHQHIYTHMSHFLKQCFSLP
Test: DPP-4 inhibition rate / IC50 value measurement (Gly-Pro-MCA fluorescence)
Assay type: biochemical
Conditions: individual oligopeptides
Description: Thirty-five μl of sample solution obtained by dissolving a sample in 50 mM tris-hydrochloric acid buffer (pH 7.5) and 15 μl of DPP-4 (manufactured by Sigma, derived from porcine kidney; 8.6 mU/ml) that was dissolved in 50 mM tris-hydrochloric acid buffer (pH 7.5) were mixed in a microtiter plate well (manufactured by NUNC, trade name “237015”) and incubated at 37° C. for 10 minutes.
To this, 50 μl of substrate solution (obtained by dissolving glycylproline-4-methylcoumarin-7-amide (Gly-Pro-MCA) in 50 mM tris-hydrochloric acid buffer (pH 7.5) at 10 μM) kept at 37° C. in advance was added and mixed to react at 37° C. for 20 minutes.
The fluorescence intensity of 7-amino-4-methylcoumarin (AMC) released by DPP-4 was measured with time using a microplate reader-type fluorescence detector (manufactured by Corona Electric Co., Ltd., trade name “SH-9000”). As for the wavelength used for the measurement, the excitation wavelength was 380 nm and the measurement wavelength was 460 nm Instead of sample, 50 mM tris-hydrochloric acid buffer (pH 7.5) in an identical amount was employed as a control and the fluorescence intensity thereof was measured.
The activity of DPP-4 was expressed in an average gradient of change in the amount of fluorescence intensity during a reaction time. As for a DPP-4 inhibition rate, difference was calculated by, with the control as 100%, subtracting the activity of sample from the above-mentioned control to use as the inhibition rate (%).
According to the above method of measuring the DPP-4 inhibition rate, a 50% inhibitory concentration (IC50 value) of the DPP-4 activity in terms of one ml of reaction system was calculated by using the inhibition rates obtained by changing the concentration of sample.
In the case of GPIGPV [GlyProIleGlyProVal], the “IC50 value” is reported as 5 µg/mL. In the case of CC(C)C[C@H](N)C(=O)N1C[C@H](O)C[C@H]1C(=O)NCC(=O)O [LeuHypGly] (H-Leu-[Hyp]-Gly-OH; N-terminus and C-terminus assumed), the “IC50 value” is reported as 39 µg/mL (≈ 129 µM). In the case of CC(C)C[C@H](N)C(=O)N1C[C@H](O)C[C@H]1C(=O)NCC(=O)N1CCC[C@H]1C(=O)N[C@@H](C)C(=O)O [LeuHypGlyProAla] (H-L[Hyp]GPA-OH; N-terminus and C-terminus assumed), the “IC50 value” is reported as 390 µg/mL (≈ 831 µM). In the case of C[C@H](N)C(=O)N1C[C@H](O)C[C@H]1C(=O)NCC(=O)O [AlaHypGly] (H-Ala-[Hyp]-Gly-OH; N-terminus and C-terminus assumed), the “IC50 value” is reported as 2450 µg/mL (≈ 9450 µM). For CC[C@H](C)[C@H](N)C(=O)N1C[C@H](O)C[C@H]1C(=O)NCC(=O)O [IleHypGly] (H-Ile-[Hyp]-Gly-OH; N-terminus and C-terminus assumed), the “IC50 value” was 150 µg/mL (≈ 498 µM).

System: not listed separately
Test: Glucose tolerance test in mice, blood glucose level
Assay type: in vivo, C57BL/6J male mice
Conditions: 3 mg/kg oral one hour before glucose; 15 minutes after the administration of glucose
Description: (1) Twenty-five C57BL/6J male mice at an age of eight weeks (Charles River Laboratories Japan) were subjected to habituation breeding for one week. For seven days prior to a glucose tolerance test, each mouse was given 0.25 ml of distilled water to acclimate to oral administration.
(2) On the day before the glucose tolerance test, the mouse was fasted except for water for 18 hours starting at 16 o'clock. […] The five groups consist of a positive control group, collagen peptide composition administered groups (400 mg/kg, 1000 mg/kg, and 2000 mg/kg), and a negative control group.
(i) The positive control group was orally administered sitagliptin (manufactured by MSD, Januvia) at 3 mg/kg one hour before administration of 20 w/v % glucose aqueous solution.
(ii) The collagen peptide composition administered groups were orally administered the above peptide powder dissolved in distilled water to be a dose of 400 mg/kg, 1000 mg/kg, or 2000 mg/kg 15 minutes before the administration of glucose.
(iii) The negative control group was orally administered 20 ml/kg of distilled water 15 minutes before the administration of glucose.
(3) The glucose was administered. […]
(4) After the administration of glucose, the blood was drawn from the tail at 15, 30, 60, and 120 minutes; and the blood glucose level was measured using a simple blood glucose measuring instrument (manufactured by Arkray Factory, GT-164). […]
Compound N[C@@H](CC(=O)N1CCn2c(nnc2C(F)(F)F)C1)Cc1cc(F)c(F)cc1F [sitagliptin] has a blood glucose level of 220 mg/dL.
